Read-outs that look alike come from different tables or passages of the source.
Target: T1, human DP1 receptor (Homo sapiens, UniProt Q13258)
T1 construct: tissue Biological Specialty Corporation; host or cells: human platelet membranes
T1 sequence (Q13258 1-359): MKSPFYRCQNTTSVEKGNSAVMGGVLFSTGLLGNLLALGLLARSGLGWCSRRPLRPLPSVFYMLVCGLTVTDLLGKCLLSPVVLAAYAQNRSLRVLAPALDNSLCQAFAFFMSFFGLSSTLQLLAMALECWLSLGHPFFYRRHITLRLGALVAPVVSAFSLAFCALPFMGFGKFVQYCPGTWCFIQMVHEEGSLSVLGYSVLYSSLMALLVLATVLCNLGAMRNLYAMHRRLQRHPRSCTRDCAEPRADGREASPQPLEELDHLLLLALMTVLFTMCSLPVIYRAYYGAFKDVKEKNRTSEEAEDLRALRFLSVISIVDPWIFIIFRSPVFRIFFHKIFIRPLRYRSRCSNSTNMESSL
Test: DP1 radioligand binding assay ([3H]BWA868C, platelet membranes)
Description: The ability of a compound to bind to the human DPI receptor was evaluated via a radioligand membrane binding assay using the DP1 selective synthetic ligand [^311]BWA868C. Packed human platelets (Biological Specialty Corporation), were resuspended in 6 volumes of Hepes/HBSS buffer (10 mM Hepes, 1 mM DTT in Hanks Balanced Salt Solution (HBSS)), lysed and centrifuged at 75,000×g to pellet the membranes. Membranes were resuspended in Hepes/HBSS buffer to approximately 12 mg protein/ml. Membranes (20 μg protein/well) are incubated in 96-well plates with 2 nM [^3H]BWA868C and test compound in Assay Buffer (50 mM Hepes, 10 mM MnCl2, 1 mM EDTA, plus or minus 0.2% human serum albumin, pH 7.4) for 60 minutes at room temperature. The reactions are terminated by rapid filtration through Whatman GF/C glass fibre filter plates. The filter plates were pre-soaked in 0.33% polyethylenimine for 30 minutes at room temperature then washed in Wash Buffer (50 mM Hepes, 0.5 M NaCl pH 7.4) prior to harvesting. After harvesting, the filter plates are washed 3 times with 1 ml cold Wash Buffer then dried. Scintillant is then added to the plates and the radioactivity retained on the filters is determined on a Packard TopCount (Perkin Elmer). Specific binding is determined as total radioactive binding minus non-specific binding in the presence of 10 μM BW A868C. IC50s were determined using GraphPad prism analysis of drug titration curves.

[1] = [3H]BWA868C binding, human platelet membranes, read-out: hDP1

IC50 [1]	IC50	SMILES
1 to 30 µM	–	CCN(Cc1cc(C(F)(F)F)ccc1-c1cc(CC(=O)O)ccc1OC)C(=O)OCc1cccc(Cl)c1 [Compound 1-43, (2′-{[(3-Chloro-benzyloxycarbonyl)-ethyl-amino]-methyl}-6-methoxy-4′-trifluoromethyl-biphenyl-3-yl)-acetic acid]
1 to 30 µM	–	CCN(Cc1cc(C(F)(F)F)ccc1-c1cc(CC(=O)O)ccc1OC)C(=O)C(C)(C)Oc1ccc(Cl)cc1 [Compound 1-118, [2′-({[2-(4-Chloro-phenoxy)-2-methyl-propionyl]-ethyl-amino}-methyl)-6-methoxy-4′-trifluoromethyl-biphenyl-3-yl]-acetic acid]
1 to 30 µM	–	CCN(Cc1cc(C(F)(F)F)ccc1-c1cc(CC(=O)O)ccc1OC)C(=O)OCc1ccccc1Cl [Compound 1-39, (2′-{[(2-Chloro-benzyloxycarbonyl)-ethyl-amino]-methyl}-6-methoxy-4′-trifluoromethyl-biphenyl-3-yl)-acetic acid]
1 to 30 µM	–	CCN(Cc1cc(C(F)(F)F)ccc1-c1cc(CC(=O)O)ccc1OC)C(=O)C(C)Oc1ccccc1 (centres unmarked) [Compound 1-45, (2′-{[Ethyl-(2-phenoxy-propionyl)-amino]-methyl}-6-methoxy-4′-trifluoromethyl-biphenyl-3-yl)-acetic acid]
1 to 30 µM	–	CCN(Cc1cc(F)ccc1-c1cc(CC(=O)O)ccc1OC)C(=O)NCc1ccc(Cl)cc1 [Compound 1-185, {2′-[3-(4-Chloro-benzyl)-1-ethyl-ureidomethyl]-4′-fluoro-6-methoxy-biphenyl-3-yl}-acetic acid]
1 to 30 µM	–	CCN(Cc1cc(C(F)(F)F)ccc1-c1cc(CC(=O)O)ccc1OC)C(=O)COc1ccccc1 [Compound 1-48, (2′-{[Ethyl-(2-phenoxy-acetyl)-amino]-methyl}-6-methoxy-4′-trifluoromethyl-biphenyl-3-yl)-acetic acid]
1 to 30 µM	–	CCN(Cc1ccccc1)C(=O)N(CC)Cc1cc(C(F)(F)F)ccc1-c1cc(CC(=O)O)ccc1OC [Compound 1-94, [2′-(3-Benzyl-1,3-diethyl-ureidomethyl)-6-methoxy-4′-trifluoromethyl-biphenyl-3-yl]-acetic acid]
1 to 30 µM	–	CCN(Cc1cc(C(F)(F)F)ccc1-c1cc(CC(=O)O)ccc1OC)C(=O)N[C@@H](C)c1ccc(Cl)cc1 [Compound 1-180, (2′-{3-[(S)-1-(4-Chloro-phenyl)-ethyl]-1-ethyl-ureidomethyl}-6-methoxy-4′-trifluoromethyl-biphenyl-3-yl)-acetic acid]
1 to 30 µM	–	CCN(Cc1cc(C(F)(F)F)ccc1-c1cc(CC(=O)O)ccc1OC)C(=O)OCc1cc(Cl)cc(Cl)c1 [Compound 1-38, (2′-{[(3,5-Dichloro-benzyloxycarbonyl)-ethyl-amino]-methyl}-6-methoxy-4′-trifluoromethyl-biphenyl-3-yl)-acetic acid]
1 to 30 µM	–	CCN(Cc1cc(C(F)(F)F)ccc1-c1cc(CC(=O)O)ccc1OC)C(=O)NCc1ccccc1 [Compound 1-96, [2′-(3-Benzyl-1-ethyl-ureidomethyl)-6-methoxy-4′-trifluoromethyl-biphenyl-3-yl]-acetic acid]
1 to 30 µM	–	CCOc1ccc(CC(=O)O)cc1-c1ccc(C(F)(F)F)cc1CN(CC)C(=O)OCc1ccccc1 [Compound 1-129, {2′-[(Benzyloxycarbonyl-ethyl-amino)-methyl]-6-ethoxy-4′-trifluoromethyl-biphenyl-3-yl}-acetic acid]
1 to 30 µM	–	CCN(Cc1cc(C(F)(F)F)ccc1-c1cc(CC(=O)O)ccc1OC)C(=O)NCc1cccc(Cl)c1 [Compound 1-177, {2′-[3-(3-Chloro-benzyl)-1-ethyl-ureidomethyl]-6-methoxy-4′-trifluoromethyl-biphenyl-3-yl}-acetic acid]
1 to 30 µM	–	CCN(Cc1cc(C(F)(F)F)ccc1-c1cc(CC(=O)O)ccc1OC)C(=O)NCc1ccc(Cl)c(Cl)c1 [Compound 1-152, {2′-[3-(3,4-Dichloro-benzyl)-1-ethyl-ureidomethyl]-6-methoxy-4′-trifluoromethyl-biphenyl-3-yl}-acetic acid]
1 to 30 µM	–	CCN(Cc1cc(C(F)(F)F)ccc1-c1cc(CC(=O)O)ccc1OC)C(=O)OCc1ccccc1 [Compound 1-28, {2′-[(Benzyloxycarbonyl-ethyl-amino)-methyl]-6-methoxy-4′-trifluoromethyl-biphenyl-3-yl}-acetic acid]
1 to 30 µM	–	CCN(Cc1cc(C(F)(F)F)ccc1-c1cc(CC(=O)O)ccc1OC)C(=O)COCc1ccccc1 [Compound 1-92, (2′-{[(2-Benzyloxy-acetyl)-ethyl-amino]-methyl}-6-methoxy-4′-trifluoromethyl-biphenyl-3-yl)-acetic acid]
1 to 30 µM	–	CCN(Cc1cc(C(F)(F)F)ccc1-c1cc(CC(=O)O)ccc1OC)C(=O)COc1ccc(Cl)cc1 [Compound 1-93, [2′-({[2-(4-Chloro-phenoxy)-acetyl]-ethyl-amino}-methyl)-6-methoxy-4′-trifluoromethyl-biphenyl-3-yl]-acetic acid]
1 to 30 µM	–	CCN(Cc1cc(C(F)(F)F)ccc1-c1cc(CC(=O)O)ccc1OC)C(=O)NCc1cc(Cl)cc(Cl)c1 [Compound 1-165, {2′-[3-(3,5-Dichloro-benzyl)-1-ethyl-ureidomethyl]-6-methoxy-4′-trifluoromethyl-biphenyl-3-yl}-acetic acid]
1 to 30 µM	–	CCN(Cc1cc(F)ccc1-c1cc(CC(=O)O)ccc1OC)C(C)=O [Compound 1-184, {2′-[(Acetyl-ethyl-amino)-methyl]-4′-fluoro-6-methoxy-biphenyl-3-yl}-acetic acid]
1 to 30 µM	–	CCN(Cc1cc(F)ccc1-c1cc(CC(=O)O)ccc1OC)C(=O)OCc1ccccc1 [Compound 1-183, {2′-[(Benzyloxycarbonyl-ethyl-amino)-methyl]-4′-fluoro-6-methoxy-biphenyl-3-yl}-acetic acid]
1 to 30 µM	–	COc1ccc(CC(=O)O)cc1-c1ccc(C(F)(F)F)cc1CN(CC(F)(F)F)C(C)=O [Compound 1-4, (2′-{[Acetyl-(2,2,2-trifluoro-ethyl)-amino]-methyl}-6-methoxy-4′-trifluoromethyl-biphenyl-3-yl)-acetic acid]
1 to 30 µM	–	CCN(Cc1cc(NS(C)(=O)=O)ccc1-c1cc(CC(=O)O)ccc1OC)C(=O)OCc1ccccc1 [Compound 1-155, {2′-[(Benzyloxycarbonyl-ethyl-amino)-methyl]-4′-methanesulfonylamino-6-methoxy-biphenyl-3-yl}-acetic acid]
1 to 30 µM	–	CCN(Cc1cc(C(F)(F)F)ccc1-c1cc(CC(=O)O)ccc1OC)C(=O)OCc1cc(F)cc(F)c1 [Compound 1-40, (2′-{[(3,5-Difluoro-benzyloxycarbonyl)-ethyl-amino]-methyl}-6-methoxy-4′-trifluoromethyl-biphenyl-3-yl)-acetic acid]
1 to 30 µM	–	CCN(Cc1cc(C(F)(F)F)ccc1-c1cc(CC(=O)O)ccc1Cl)C(=O)OCc1ccccc1 [Compound 1-110, {2′-[(Benzyloxycarbonyl-ethyl-amino)-methyl]-6-chloro-4′-trifluoromethyl-biphenyl-3-yl}-acetic acid]
1 to 30 µM	–	CCNC(=O)N(CC)Cc1cc(C(F)(F)F)ccc1-c1cc(CC(=O)O)ccc1OC [Compound 1-181, [2′-(1,3-Diethyl-ureidomethyl)-6-methoxy-4′-trifluoromethyl-biphenyl-3-yl]-acetic acid]
–	1 to 30 µM	COc1ccc(CC(=O)O)cc1-c1ccc(C(F)(F)F)cc1CN(C(=O)OCc1ccccc1)C1CC1 [Compound 1-36, {2′-[(Benzyloxycarbonyl-cyclopropyl-amino)-methyl]-6-methoxy-4′-trifluoromethyl-biphenyl-3-yl}-acetic acid]
1 to 30 µM	–	O=C(O)CCn1c2c(c3ccccc31)C[C@H](NS(=O)(=O)c1ccc(F)cc1)CC2 [Ramatroban, reference compound]
1 to 30 µM	–	CCN(Cc1cc(C(F)(F)F)ccc1-c1cc(CC(=O)O)ccc1OC)C(=O)NCc1cc(F)cc(F)c1 [Compound 1-178, {2′-[3-(3,5-Difluoro-benzyl)-1-ethyl-ureidomethyl]-6-methoxy-4′-trifluoromethyl-biphenyl-3-yl}-acetic acid]
1 to 30 µM	–	CCN(Cc1cc(C(F)(F)F)ccc1-c1cc(CC(=O)O)ccc1OC)C(=O)C(F)(F)F [Compound 1-32, (2′-{[Ethyl-(2,2,2-trifluoro-acetyl)-amino]-methyl}-6-methoxy-4′-trifluoromethyl-biphenyl-3-yl)-acetic acid]
1 to 30 µM	–	COc1ccc(CC(=O)O)cc1-c1ccc(C(F)(F)F)cc1CN(C)C(=O)OCc1ccccc1 [Compound 1-27, {2′-[(Benzyloxycarbonyl-methyl-amino)-methyl]-6-methoxy-4′-trifluoromethyl-biphenyl-3-yl}-acetic acid]

— patent publication US8067445B2, “N,N-disubstituted aminoalkylbiphenyl antagonists of prostaglandin D2 receptors” (Panmira Pharmaceuticals, LLC, priority 2008, dated 2011)
